Results: patent US9334246B2, “Substituted triazines for malaria treatment and chemoprophylaxis” (The United States of America, as represented by the …, priority 2013, dated 2016)

How the values were obtained:
Type in all cases: cell-based, Plasmodium falciparum
P. falciparum D6 = assay: Malaria SYBR Green Fluorescence Assay, D6 strain; details: for D6: SYBR Green Assay
P. falciparum W2 = assay: Malaria SYBR Green Fluorescence Assay, W2 strain; details: for W2: SYBR Green Assay
P. falciparum C235 = assay: Malaria SYBR Green Fluorescence Assay, C235 strain; details: for C235: SYBR Green Assay

Molecule	D6 (SYBR Green Assay IC50) (P. falciparum D6) [µg/mL]	W2 (SYBR Green Assay IC50) (P. falciparum W2) [µg/mL]	C235 (SYBR Green Assay IC50) (P. falciparum C235) [µg/mL]	D6 (P. falciparum D6) [ng/mL]	W2 (P. falciparum W2) [ng/mL]	C235 (P. falciparum C235) [ng/mL]
NC1CCN(c2nc(-c3ccccc3)nc(C(Cl)(Cl)Cl)n2)CC1 [Compound 621, NC1CCN(CC1)C1═NC(═NC(═N1)C1═CC═CC═C1)C(Cl)(Cl)Cl]	0.29	0.101	0.319	–	–	–
CCN1CCCC(Nc2nc(-c3cc(OC)cc(OC)c3)nc(C(Cl)(Cl)Cl)n2)C1 (stereo not drawn) [Cmpd 528]	0.035	0.023	0.033	–	–	–
CC(C)CN1CCC(CC1)NC1═NC(═NC(═N1)C(Cl)(Cl)Cl)C1═C(C═CC═C1)[N+]([O−])═O [Compound 684]	–	–	–	225	66	155
CC(C)CN1CCC(CC1)NC1═NC(═NC(═N1)C1═CC(═CC═C1)C(F)(F)F)C(Cl)(Cl)Cl [Compound 700]	–	–	–	513	368	567
COc1ccccc1-c1nc(N2CCCNCC2)nc(C(Cl)(Cl)Cl)n1 [Cmpd 218]	–	–	–	104	38	73
Cc1ccc(-c2nc(NCCc3cccnc3)nc(C(Cl)(Cl)Cl)n2)cc1 [Cmpd 172]	–	–	–	209	106	346
CN1CCCC1CCNc1nc(-c2ccccc2[N+](=O)[O-])nc(C(Cl)(Cl)Cl)n1 (stereo not drawn) [Cmpd 524]	0.108	0.028	0.07	–	–	–
FC(F)(F)c1cccc(-c2nc(NCCc3ccccn3)nc(C(Cl)(Cl)Cl)n2)c1 [Cmpd 186]	–	–	–	494	115	499
ClC(Cl)(Cl)c1nc(NCCN2CCCC2)nc(-c2ccccc2)n1 [Cmpd 405]	0.027	0.016	0.045	–	–	–
Clc1ccc(-c2nc(NCc3cccnc3)nc(C(Cl)(Cl)Cl)n2)cc1 [Cmpd 142]	–	–	–	306	112	469
COc1cccc(-c2nc(NCCc3ccncc3)nc(C(Cl)(Cl)Cl)n2)c1 [Cmpd 151]	–	–	–	346	133	549
CN(CCc1ccccn1)c1nc(-c2cc(Cl)cc(Cl)c2)nc(C(Cl)(Cl)Cl)n1 [Cmpd 474]	0.065	0.208	0.527	–	–	–
CCN1CCCC(Nc2nc(Cc3ccccc3OC)nc(C(Cl)(Cl)Cl)n2)C1 (stereo not drawn) [Cmpd 94]	–	–	–	396	173	456
OCCN1CCCN(c2nc(-c3ccccc3)nc(C(Cl)(Cl)Cl)n2)CC1 [Cmpd 458]	0.172	0.044	0.116	–	–	–
CC(C)(N)CNc1nc(Nc2ccc(OC(F)(F)F)cc2)nc(C(Cl)(Cl)Cl)n1 [Cmpd 296]	–	–	–	302	318	460
OCCN1CCCN(c2nc(-c3ccc4ccccc4c3)nc(C(Cl)(Cl)Cl)n2)CC1 [Cmpd 459]	0.163	0.108	0.153	–	–	–
NC1CCN(c2nc(-c3ccccc3[N+](=O)[O-])nc(C(Cl)(Cl)Cl)n2)CC1 [Compound 632, NC1CCN(CC1)C1═NC(═NC(═N1)C(Cl)(Cl)Cl)C1═C(C═CC═C1)[N+]([O−])═O]	0.064	0.04	0.058	–	–	–
CC(C)CN1CCC(CC1)NC1═NC(═NC(═N1)C(Cl)(Cl)Cl)C1═CC═C(Cl)C(Cl)═C1 [Compound 692]	–	–	–	32	24	43
COc1ccccc1-c1nc(NCCCN2CCCC2)nc(C(Cl)(Cl)Cl)n1 [Cmpd 105]	–	–	–	145	73	93
CCN1CCC(CNc2nc(-c3ccc(Cl)c(Cl)c3)nc(C(Cl)(Cl)Cl)n2)CC1 [Cmpd 257]	–	–	–	54	45	29
CSc1ccc(-c2nc(NC(C)(C)CN)nc(C(Cl)(Cl)Cl)n2)cc1 [Cmpd 277]	–	–	–	406	364	312
COc1ccc(-c2nc(N3CCCNCC3)nc(C(Cl)(Cl)Cl)n2)cc1 [Cmpd 101]	–	–	–	182	117	158
CC(C)N1CCC(CNc2nc(-c3ccc(-c4ccccc4)cc3)nc(C(Cl)(Cl)Cl)n2)CC1 [Cmpd 496]	0.029	0.015	0.014	–	–	–
